Reference: patent US4477443A, “Tylosin derivatives, their preparation and pharmaceutical compositions containing them” (Zaidan Hojin Biselbutsu Kagaku Kenkyu Kai (Microbial …, priority 1981, dated 1984)
≈ marks a conversion by molar mass, not a printed value. Like-named read-outs stand apart in the source and are kept apart here.

Columns and labels:
Assay in all cases: antimicrobial activity (MIC), Table II
Assay type in all cases: cell-based
B. subtilis ATCC 6633 = details: Bacillus subtilis, ATCC6633; B. subtilis ATCC 6633; read-out: MIC
B. cereus = details: Bacillus cereus; B. cereus; read-out: MIC
Staph. aureus ATCC 6538P = details: Staphylococcus aureus, ATCC6538P
Staph. aureus KC-11 = details: Staphylococcus aureus, KC11
Staph. aureus 226 = details: Staphylococcus aureus
[1] = test system: Staph. epidermidis IID 886; details: Staphylococcus epidermidis, IID886
[2] = test system: Staph. epidermidis IID 866; details: Staphylococcus epidermidis, IID866
[3] = Staph. aureus KC-11, read-out: MIC
[4] = Staph. aureus 226, read-out: MIC
[5] = Staph. aureus ATCC 6538P, read-out: MIC

| SMILES | MIC (B. subtilis ATCC 6633) | MIC (B. cereus) | MIC (Staph. aureus KC-11; [3]) | MIC (Staph. aureus 226; [4]) | MIC [1] | MIC (Staph. aureus ATCC 6538P; [5]) | MIC [2] | MIC (Staph. aureus ATCC 6538P) | MIC (Staph. aureus KC-11) | MIC (Staph. aureus 226; 226) |
| --- | --- | --- | --- | --- | --- | --- | --- | --- | --- | --- |
| CCC1OC(=O)CC(O)C(C)C(OC2OC(C)CC(N(C)C)C2O)C(CC=O)CC(C)C(=O)C=CC(C)=CC1CNC1CC1 (centres unmarked) [Example 96, 23,4'-dideoxy-23-cyclopropylaminomycaminosyl tylonolide] | 0.78 mg/L (≈ 1.26 µM) | 0.39 mg/L (≈ 0.628 µM) | 0.78 mg/L (≈ 1.26 µM) | 0.78 mg/L (≈ 1.26 µM) | 0.39 mg/L (≈ 0.628 µM) | – | – | 0.39 mg/L (≈ 0.628 µM) | – | – |
| CCC1OC(=O)CC(O)C(C)C(OC2OC(C)CC(N(C)C)C2O)C(CC=O)CC(C)C(=O)C=CC(C)=CC1CN(C)CCO (centres unmarked) [Example 66, 23,4'-dideoxy-23-N-(2-hydroxyethyl)methylaminomycaminosyl tylonolide] | 1.56 mg/L (≈ 2.44 µM) | ≤ 0.2 mg/L | 1.56 mg/L (≈ 2.44 µM) | 1.56 mg/L (≈ 2.44 µM) | 0.78 mg/L (≈ 1.22 µM) | 0.78 mg/L (≈ 1.22 µM) | – | – | – | – |
| CCC1OC(=O)CC(O)C(C)C(OC2OC(C)CC(N(C)C)C2O)C(CC=O)CC(C)C(=O)C=CC(C)=CC1COC(=O)CSc1ccccn1 (centres unmarked) [Example 53, 23-O-(pyridine-2-thioyl)acetyl-4'-deoxymycaminosyl tylonolide] | 0.39 mg/L (≈ 0.532 µM) | ≤ 0.2 mg/L | – | – | ≤ 0.2 mg/L | – | – | 0.39 mg/L (≈ 0.532 µM) | 0.39 mg/L (≈ 0.532 µM) | 0.39 mg/L (≈ 0.532 µM) |
| CCC1OC(=O)CC(O)C(C)C(OC2OC(C)CC(N(C)C)C2O)C(CC=O)CC(C)C(=O)C=CC(C)=CC1CN(CC)C(=O)c1cccnc1 (centres unmarked) [Example 46, 23,4'-dideoxy-23-N-nicotinoylethylaminomycaminosyl tylonolide] | 1.56 mg/L (≈ 2.19 µM) | 0.39 mg/L (≈ 0.546 µM) | 1.56 mg/L (≈ 2.19 µM) | 1.56 mg/L (≈ 2.19 µM) | – | 1.56 mg/L (≈ 2.19 µM) | 0.78 mg/L (≈ 1.09 µM) | – | – | – |
| CCC1OC(=O)CC(O)C(C)C(OC2OC(C)C(O)C(N(C)C)C2O)C(CC=O)CC(C)C(=O)C=CC(C)=CC1CN1CCCCCC1 (centres unmarked) [Example 24, 23-deoxy-23-hexamethyleneiminomycaminosyl tylonolide] | 0.78 mg/L (≈ 1.15 µM) | 0.39 mg/L (≈ 0.574 µM) | 0.78 mg/L (≈ 1.15 µM) | – | – | – | 0.39 mg/L (≈ 0.574 µM) | 0.39 mg/L (≈ 0.574 µM) | – | ≤ 0.2 mg/L |
| CCC1OC(=O)CC(O)C(C)C(OC2OC(C)CC(N(C)C)C2O)C(CC=O)CC(C)C(=O)C=CC(C)=CC1CNC(C)(C)C (centres unmarked) [Example 22, 23,4'-dideoxy-23-(t-butylamino)mycaminosyl tylonolide] | 0.78 mg/L (≈ 1.22 µM) | 0.39 mg/L (≈ 0.612 µM) | 0.78 mg/L (≈ 1.22 µM) | 0.78 mg/L (≈ 1.22 µM) | – | 0.78 mg/L (≈ 1.22 µM) | 0.78 mg/L (≈ 1.22 µM) | – | – | – |
| CCC1OC(=O)CC(O)C(C)C(OC2OC(C)CC(N(C)C)C2O)C(CC=O)CC(C)C(=O)C=CC(C)=CC1CNCC(C)(C)C (centres unmarked) [Example 23, 23,4'-dideoxy-23-neopentylaminocaminosyl tylonolide] | 1.56 mg/L (≈ 2.4 µM) | 0.78 mg/L (≈ 1.2 µM) | 0.78 mg/L (≈ 1.2 µM) | 0.78 mg/L (≈ 1.2 µM) | – | 0.78 mg/L (≈ 1.2 µM) | 0.78 mg/L (≈ 1.2 µM) | – | – | – |
| CCC(=O)N(CC)CC1C=C(C)C=CC(=O)C(C)CC(CC=O)C(OC2OC(C)C(O)C(N(C)C)C2O)C(C)C(O)CC(=O)OC1CC (centres unmarked) [Example 42, 23-deoxy-23-N-ethylpropionylaminomycaminosyl tylonolide] | 0.78 mg/L (≈ 1.15 µM) | 0.39 mg/L (≈ 0.573 µM) | 1.56 mg/L (≈ 2.29 µM) | 0.78 mg/L (≈ 1.15 µM) | – | 0.78 mg/L (≈ 1.15 µM) | 0.78 mg/L (≈ 1.15 µM) | – | – | – |
| CCC1OC(=O)CC(O)C(C)C(OC2OC(C)C(O)C(N(C)C)C2O)C(CC=O)CC(C)C(=O)C=CC(C)=CC1CN(CC)C(=O)c1ccco1 (centres unmarked) [Example 43, 23-deoxy-23-N-(2-furoyl)ethylaminomycaminosyl tylonolide] | 0.78 mg/L (≈ 1.09 µM) | 0.39 mg/L (≈ 0.543 µM) | 0.78 mg/L (≈ 1.09 µM) | 0.78 mg/L (≈ 1.09 µM) | – | 0.78 mg/L (≈ 1.09 µM) | 0.78 mg/L (≈ 1.09 µM) | – | – | – |
| CCC1OC(=O)CC(O)C(C)C(OC2OC(C)CC(N(C)C)C2O)C(CC=O)CC(C)C(=O)C=CC(C)=CC1CNC(C)C (centres unmarked) [Example 21, 23,4'-dideoxy-23-isopropylaminomycaminosyl tylonolide] | 0.78 mg/L (≈ 1.25 µM) | 0.39 mg/L (≈ 0.626 µM) | 0.78 mg/L (≈ 1.25 µM) | 0.78 mg/L (≈ 1.25 µM) | – | 0.78 mg/L (≈ 1.25 µM) | 0.78 mg/L (≈ 1.25 µM) | – | – | – |
| CCC1OC(=O)CC(O)C(C)C(OC2OC(C)C(O)C(N(C)C)C2O)C(CC=O)CC(C)C(=O)C=CC(C)=CC1CN1CCCCCCC1 (centres unmarked) [Example 90, 23-deoxy-23-heptamethyleneiminomycaminosyl tylonolide] | 0.39 mg/L (≈ 0.563 µM) | – | – | – | 0.39 mg/L (≈ 0.563 µM) | – | – | 0.39 mg/L (≈ 0.563 µM) | 0.39 mg/L (≈ 0.563 µM) | 0.39 mg/L (≈ 0.563 µM) |
| CCC1OC(=O)CC(O)C(C)C(OC2OC(C)CC(N(C)C)C2O)C(CC=O)CC(C)C(=O)C=CC(C)=CC1COC(=O)CN1CCCC1 (centres unmarked) [Example 52, 23-O-pyrrolidinoacetyl-4'-deoxymycaminosyl tylonolide] | 1.56 mg/L (≈ 2.25 µM) | 1.56 mg/L (≈ 2.25 µM) | 0.78 mg/L (≈ 1.13 µM) | 0.78 mg/L (≈ 1.13 µM) | – | 0.78 mg/L (≈ 1.13 µM) | 0.78 mg/L (≈ 1.13 µM) | – | – | – |
| CCC1OC(=O)CC(O)C(C)C(OC2OC(C)CC(N(C)C)C2O)C(CC=O)CC(C)C(=O)C=CC(C)=CC1CN(CC)C(C)=O (centres unmarked) [Example 47, 23-N-acetylethylamino-23,4'-dideoxymycaminosyl tylonolide] | 0.78 mg/L (≈ 1.2 µM) | 0.39 mg/L (≈ 0.599 µM) | 0.78 mg/L (≈ 1.2 µM) | 1.56 mg/L (≈ 2.4 µM) | – | 0.78 mg/L (≈ 1.2 µM) | 0.78 mg/L (≈ 1.2 µM) | – | – | – |
| CCC1OC(=O)CC(O)C(C)C(OC2OC(C)CC(N(C)C)C2O)C(CC=O)CC(C)C(=O)C=CC(C)=CC1COC(=O)CN(C)C (centres unmarked) [Example 51, 23-O-dimethylaminoacetyl-4'-deoxymycaminosyltylonolide] | 0.78 mg/L (≈ 1.17 µM) | 0.39 mg/L (≈ 0.585 µM) | 0.78 mg/L (≈ 1.17 µM) | 0.78 mg/L (≈ 1.17 µM) | – | 0.78 mg/L (≈ 1.17 µM) | 0.39 mg/L (≈ 0.585 µM) | – | – | – |

The remaining compounds from weak to strong by MIC (B. subtilis ATCC 6633), led by results:

| MIC (B. subtilis ATCC 6633) | MIC (B. cereus) | MIC (Staph. aureus KC-11; [3]) | MIC (Staph. aureus 226; [4]) | MIC [1] | MIC (Staph. aureus ATCC 6538P; [5]) | MIC [2] | SMILES | MIC (Staph. aureus ATCC 6538P) | MIC (Staph. aureus KC-11) | MIC (Staph. aureus 226; 226) |
| --- | --- | --- | --- | --- | --- | --- | --- | --- | --- | --- |
| 0.78 mg/L (≈ 1.15 µM) | – | 0.78 mg/L (≈ 1.15 µM) | 0.78 mg/L (≈ 1.15 µM) | 0.78 mg/L (≈ 1.15 µM) | 0.78 mg/L (≈ 1.15 µM) | – | CCC1OC(=O)CC(O)C(C)C(OC2OC(C)C(O)C(N(C)C)C2O)C(CC=O)CC(C)C(=O)C=CC(C)=CC1CN1CCC(C)CC1 (centres unmarked) [Example 89, 23-deoxy-23-(4-methylpiperidino)mycaminosyl tylonolide] | – | – | – |
| 0.78 mg/L (≈ 1.19 µM) | 0.39 mg/L (≈ 0.597 µM) | 0.78 mg/L (≈ 1.19 µM) | 0.78 mg/L (≈ 1.19 µM) | 0.78 mg/L (≈ 1.19 µM) | 0.78 mg/L (≈ 1.19 µM) | – | CCC1OC(=O)CC(O)C(C)C(OC2OC(C)CC(N(C)C)C2O)C(CC=O)CC(C)C(=O)C=CC(C)=CC1CN(CC)CCO (centres unmarked) [Example 67, 23,4'-dideoxy-23-N-ethyl(2-hydroxyethyl)aminomycaminosyl tylonolide] | – | – | – |
| 0.78 mg/L (≈ 1.13 µM) | 0.78 mg/L (≈ 1.13 µM) | 0.78 mg/L (≈ 1.13 µM) | 0.78 mg/L (≈ 1.13 µM) | 0.78 mg/L (≈ 1.13 µM) | 0.78 mg/L (≈ 1.13 µM) | – | CCC1OC(=O)CC(O)C(C)C(OC2OC(C)CC(N(C)C)C2O)C(CC=O)CC(C)C(=O)C=CC(C)=CC1CN(CC)CC(F)(F)F (centres unmarked) [Example 74, 23,4'-Dideoxy-23-N-(2,2,2-trifluoroethyl)ethylaminomycaminosyl tylonolide] | – | – | – |
| 0.78 mg/L (≈ 1.25 µM) | ≤ 0.2 mg/L | 0.78 mg/L (≈ 1.25 µM) | 1.56 mg/L (≈ 2.5 µM) | 0.78 mg/L (≈ 1.25 µM) | 0.78 mg/L (≈ 1.25 µM) | – | CCC1OC(=O)CC(O)C(C)C(OC2OC(C)CC(N(C)C)C2O)C(CC=O)CC(C)C(=O)C=CC2(C)OC2C1CN(C)C (centres unmarked) [Example 61, 23,4'-dideoxy-23-dimethylamino-12,13-epoxymycaminosyl tylonolide] | – | – | – |
| 0.78 mg/L (≈ 1.15 µM) | – | 0.78 mg/L (≈ 1.15 µM) | 0.78 mg/L (≈ 1.15 µM) | 0.39 mg/L (≈ 0.574 µM) | 0.78 mg/L (≈ 1.15 µM) | – | CCC1OC(=O)CC(O)C(C)C(OC2OC(C)C(O)C(N(C)C)C2O)C(CC=O)CC(C)C(=O)C=CC(C)=CC1CN1CCCC(C)C1 (centres unmarked) [Example 88, 23-deoxy-23-(3-methylpiperidino)mycaminosyl tylonolide] | – | – | – |
| 0.78 mg/L (≈ 1.15 µM) | – | 0.78 mg/L (≈ 1.15 µM) | 0.78 mg/L (≈ 1.15 µM) | 0.78 mg/L (≈ 1.15 µM) | 0.78 mg/L (≈ 1.15 µM) | – | CCC1OC(=O)CC(O)C(C)C(OC2OC(C)C(O)C(N(C)C)C2O)C(CC=O)CC(C)C(=O)C=CC(C)=CC1CN1CCCCC1C (centres unmarked) [Example 87, 23-deoxy-23-(2-methylpiperidino)mycaminosyl tylonolide] | – | – | – |
| 0.39 mg/L (≈ 0.555 µM) | 0.39 mg/L (≈ 0.555 µM) | 0.78 mg/L (≈ 1.11 µM) | 0.78 mg/L (≈ 1.11 µM) | – | 0.78 mg/L (≈ 1.11 µM) | 0.39 mg/L (≈ 0.555 µM) | CCC1OC(=O)CC(O)C(C)C(OC2OC(C)CC(N(C)C)C2O)C(CC=O)CC(C)C(=O)C=CC(C)=CC1CN(CC)C(=O)c1ccco1 (centres unmarked) [Example 45, 23,4'-dideoxy-23-N-(2-furoyl)ethylaminomycaminosyl tylonolide] | – | – | – |
